Data: ChEMBL document CHEMBL1201862, “PubChem BioAssay data set” (2004)
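Exposure lasted 48 hours, with cells grown in 96-well plates and compounds tested at five concentrations. The concentration for 50% growth inhibition is given as GI50.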 Activity calls are given as the source filed them. Rule as the data show it: active = GI50 up to about 1.1 µM and inactive = higher.

Columns and labels:
Assay in all cases: DTP human tumour cell line panel, 48 h
SK-OV-3 = test system: SK-OV-3
COLO 205 = test system: COLO 205
SF-539 = test system: SF-539
Malme-3M = test system: Malme-3M
SW-620 = test system: SW-620
U-251 = test system: U-251
ACHN = test system: ACHN
UACC-257 = test system: UACC-257
NCI-H23 = test system: NCI-H23
M14 = test system: M14
HCT-116 = test system: HCT-116
HCT-15 = test system: HCT-15
UACC-62 = test system: UACC-62
HL-60 = test system: HL-60
LXFL 529 = test system: LXFL 529
A498 = test system: A498

Q: `Cc1cc2c(=O)cc(-c3ccc(O)cc3)oc2c(C(=O)O)c1C` was tested. Which GI50 (SK-OV-3) did it give?
A: > 100 µM (inactive)

Q: And the GI50 (COLO 205)?
A: > 100 µM (inactive)

Q: And the GI50 (SF-539)?
A: > 100 µM (inactive)

Q: What about the GI50 (Malme-3M) of the same compound?
A: > 100 µM (inactive)

Q: And the GI50 (SW-620)?
A: > 100 µM (inactive)

Q: And the GI50 (U-251)?
A: > 100 µM (inactive)

Q: And the GI50 (ACHN)?
A: > 100 µM (inactive)

Q: And the GI50 (UACC-257)?
A: > 100 µM (inactive)

Q: What about the GI50 (NCI-H23) of the same compound?
A: > 100 µM (inactive)

Q: What about the GI50 (M14) of the same compound?
A: > 100 µM (inactive)

Q: And the GI50 (HCT-116)?
A: > 100 µM (inactive)

Q: And the GI50 (HCT-15)?
A: > 100 µM

Q: What about the GI50 (UACC-62) of the same compound?
A: > 100 µM (inactive)

Q: What about the GI50 (HL-60) of the same compound?
A: > 100 µM (inactive)

Q: And the GI50 (LXFL 529)?
A: > 100 µM (inactive)

Q: What does the source list for `O=C(COc1ccc(/C=C/C(=O)c2ccc(Cl)cc2)cc1)Nc1c(Cl)cccc1Cl`?
A: GI50 (SK-OV-3): 58.3 µM (inactive); GI50 (COLO 205): > 100 µM (inactive); GI50 (SF-539): 80.7 µM (inactive); GI50 (Malme-3M): > 100 µM (inactive); GI50 (SW-620): > 100 µM (inactive); GI50 (U-251): 68.2 µM (inactive); GI50 (ACHN): > 100 µM (inactive); GI50 (UACC-257): 79.8 µM (inactive); GI50 (NCI-H23): 77.8 µM (inactive); GI50 (A498): > 100 µM (inactive); GI50 (M14): > 100 µM (inactive); GI50 (HCT-116): 38.2 µM (inactive); GI50 (HCT-15): > 100 µM; GI50 (UACC-62): > 100 µM (inactive); GI50 (HL-60): 0.0607 µM (active); GI50 (LXFL 529): 78.7 µM (inactive)

Q: With `N#CC1(C#N)C2C=CC(c3coc4cccc2c34)C1(C#N)C#N` (stereo not given) as the compound, how does the GI50 (SK-OV-3) read?
A: 17.7 µM (inactive)

Q: What about the GI50 (COLO 205) of the same compound?
A: 1.9 µM (inactive)

Q: And the GI50 (SF-539)?
A: 20.2 µM (inactive)

Q: And the GI50 (Malme-3M)?
A: 7.05 µM (inactive)

Q: And the GI50 (SW-620)?
A: 1.61 µM (inactive)

Q: And the GI50 (U-251)?
A: 19.5 µM (inactive)

Q: And the GI50 (ACHN)?
A: 5.53 µM (inactive)

Q: What about the GI50 (UACC-257) of the same compound?
A: 10.8 µM (inactive)

Q: What about the GI50 (NCI-H23) of the same compound?
A: 18.7 µM (inactive)

Q: What about the GI50 (A498) of the same compound?
A: 20.4 µM (inactive)

Q: What about the GI50 (M14) of the same compound?
A: 12.7 µM (inactive)

Q: And the GI50 (HCT-116)?
A: 2.49 µM (inactive)

Q: What about the GI50 (HCT-15) of the same compound?
A: 7.08 µM

Q: And the GI50 (UACC-62)?
A: 10.2 µM (inactive)

Q: And the GI50 (HL-60)?
A: 1.45 µM (inactive)

Q: What about the GI50 (LXFL 529) of the same compound?
A: 8.87 µM (inactive)

Q: Which GI50 (SK-OV-3) does the source give for `C=C(CN(CC(=C)C(=O)c1ccccc1)C(C)(C)C)C(=O)c1ccccc1` here?
A: 18.4 µM (inactive)

Q: What about the GI50 (COLO 205) of the same compound?
A: 2.65 µM (inactive)

Q: What about the GI50 (SF-539) of the same compound?
A: 16.8 µM (inactive)

Q: And the GI50 (Malme-3M)?
A: 15.3 µM (inactive)

Q: And the GI50 (SW-620)?
A: 2.82 µM (inactive)

Q: What about the GI50 (U-251) of the same compound?
A: 20.5 µM (inactive)

Q: And the GI50 (ACHN)?
A: 8.99 µM (inactive)

Q: And the GI50 (UACC-257)?
A: 17 µM (inactive)

Q: What about the GI50 (NCI-H23) of the same compound?
A: 16.4 µM (inactive)

Q: And the GI50 (A498)?
A: 18.3 µM (inactive)

Q: What about the GI50 (M14) of the same compound?
A: 10.5 µM (inactive)

Q: And the GI50 (HCT-116)?
A: 13.8 µM (inactive)

Q: And the GI50 (UACC-62)?
A: 17.2 µM (inactive)

Q: What about the GI50 (HL-60) of the same compound?
A: 2.53 µM (inactive)

Q: What about the GI50 (LXFL 529) of the same compound?
A: 3.84 µM (inactive)

Q: Which results are given for `CC1(C)C(=O)C(O)=CC2C1=CCC1C2(C)C(=O)CC2(C)C(C(C)(O)C(=O)CC(O)C(C)(C)O)C(O)CC12C` (stereo not given)?
A: GI50 (SK-OV-3): 3.72 µM (inactive); GI50 (COLO 205): 3.67 µM (inactive); GI50 (SF-539): 2.57 µM (inactive); GI50 (Malme-3M): 3.54 µM (inactive); GI50 (SW-620): 3.57 µM (inactive); GI50 (U-251): 2.65 µM (inactive); GI50 (ACHN): 2.3 µM (inactive); GI50 (UACC-257): 3.52 µM (inactive); GI50 (NCI-H23): 10.9 µM (inactive); GI50 (A498): 2 µM (inactive); GI50 (M14): 3.54 µM (inactive); GI50 (HCT-116): 3.97 µM (inactive); GI50 (HCT-15): 3.18 µM; GI50 (UACC-62): 5.52 µM (inactive); GI50 (HL-60): 3.17 µM (inactive); GI50 (LXFL 529): 3.64 µM (inactive)

Q: With `CC/C(=C(\c1ccccc1)c1ccc(OCC[N+](C)(C)C)cc1)c1ccccc1` [TAMOXIFEN METHYL IODIDE] as the compound, how does the GI50 (SK-OV-3) read?
A: 17.5 µM (inactive)

Q: What about the GI50 (COLO 205) of the same compound?
A: 5.31 µM (inactive)

Q: And the GI50 (SF-539)?
A: 21.6 µM (inactive)

Q: What about the GI50 (Malme-3M) of the same compound?
A: 12.8 µM (inactive)

Q: What about the GI50 (SW-620) of the same compound?
A: 16 µM (inactive)

Q: And the GI50 (U-251)?
A: 13.4 µM (inactive)

Q: What about the GI50 (ACHN) of the same compound?
A: 17.5 µM (inactive)

Q: And the GI50 (UACC-257)?
A: 6.75 µM (inactive)

Q: What about the GI50 (A498) of the same compound?
A: 19 µM (inactive)

Q: What about the GI50 (M14) of the same compound?
A: 14.7 µM (inactive)

Q: And the GI50 (HCT-116)?
A: 17.5 µM (inactive)

Q: What about the GI50 (HCT-15) of the same compound?
A: 17.7 µM

Q: And the GI50 (UACC-62)?
A: 11 µM (inactive)

Q: And the GI50 (HL-60)?
A: 2.52 µM (inactive)

Q: What about the GI50 (LXFL 529) of the same compound?
A: 10 µM (inactive)

Q: Which results are given for `Cc1ccc2c(c1)-c1c3c(nn1C)-c1ccccc1SC3O2` (stereo not given)?
A: GI50 (SK-OV-3): > 100 µM (inactive); GI50 (COLO 205): 75.5 µM (inactive); GI50 (SF-539): > 100 µM (inactive); GI50 (Malme-3M): > 100 µM (inactive); GI50 (SW-620): > 100 µM (inactive); GI50 (U-251): > 100 µM (inactive); GI50 (ACHN): 54.1 µM (inactive); GI50 (UACC-257): 50.6 µM (inactive); GI50 (NCI-H23): > 100 µM (inactive); GI50 (A498): 49.7 µM (inactive); GI50 (HCT-116): 33.7 µM (inactive); GI50 (HL-60): 24.5 µM (inactive); GI50 (LXFL 529): 30.7 µM (inactive)

Q: Which results are given for `CCN(CC)c1ccc(Cl)c2c1C(O)(C(C)C)C2(C)C` (stereo not given)?
A: GI50 (SK-OV-3): 15.6 µM (inactive); GI50 (COLO 205): 15.2 µM (inactive); GI50 (SF-539): 19.8 µM (inactive); GI50 (Malme-3M): 13.9 µM (inactive); GI50 (SW-620): 18.1 µM (inactive); GI50 (U-251): 16.8 µM (inactive); GI50 (ACHN): 17.4 µM (inactive); GI50 (UACC-257): 14.5 µM (inactive); GI50 (NCI-H23): 15 µM (inactive); GI50 (A498): 21.3 µM (inactive); GI50 (M14): 16.4 µM (inactive); GI50 (HCT-116): 14.1 µM (inactive); GI50 (HCT-15): 14.5 µM; GI50 (HL-60): 15.6 µM (inactive); GI50 (LXFL 529): 17 µM (inactive)

Q: For `CC(C)(C)C1=CC(=C(P(=O)(O)O)P(=O)(O)O)C=C(C(C)(C)C)C1=O`, which GI50 (SK-OV-3) is on record?
A: > 50 µM (inactive)

Q: And the GI50 (SF-539)?
A: > 50 µM (inactive)

Q: What about the GI50 (Malme-3M) of the same compound?
A: > 50 µM (inactive)

Q: What about the GI50 (SW-620) of the same compound?
A: > 50 µM (inactive)

Q: What about the GI50 (ACHN) of the same compound?
A: > 50 µM (inactive)

Q: What about the GI50 (UACC-257) of the same compound?
A: > 50 µM (inactive)

Q: And the GI50 (NCI-H23)?
A: > 50 µM (inactive)

Q: And the GI50 (A498)?
A: > 50 µM (inactive)

Q: What about the GI50 (M14) of the same compound?
A: > 50 µM (inactive)

Q: What about the GI50 (HCT-116) of the same compound?
A: > 50 µM (inactive)

Q: What about the GI50 (HCT-15) of the same compound?
A: > 50 µM

Q: And the GI50 (UACC-62)?
A: > 50 µM (inactive)

Q: What about the GI50 (HL-60) of the same compound?
A: > 50 µM (inactive)

Q: And the GI50 (LXFL 529)?
A: > 50 µM (inactive)
